Measured values reported in US20230142274A1 (SIMCERE PHARMACEUTICAL CO., LTD., priority 2020, published 2023).
pIC50: −log10 of the molar value.

How the values were obtained:
WI-38 cells = assay: Inhibition of human WI-38 embryonic lung cell proliferation (Cell-Titer Glo); type: cell-based; conditions: Homo sapiens, 72 h, 3 days incubation, read-out: Anti-Proliferative Activity Against WI-38 cells IC50
How it was run: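 WI-38 cells in EMEM with 10% FBS, seeded 24 h, then exposed to 10-point 3-fold compound dilutions (0.25% DMSO final) for 3 days at 37 °C, 5% CO2. Viability from intracellular ATP by Cell-Titer Glo luminescence; % inhibition normalised to top/bottom signals and IC50 fitted.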

[1] = Metabolic stability in liver microsomes (CD-1 mouse); type: in vitro ADME; conditions: CD-1 mouse liver microsomes 0.5 mg/mL, compound 1 μM, NADPH 1 mM, 37° C.; for half-life at 1 μM: pH 7.4
Description: (§1) 1. Source of liver microsomes: human liver microsomes (Corning 452117), CD-1 mouse liver microsomes (XENOTECH M1000)
(§2) 1. Formulation of 100 mM phosphate buffer solution (PBS): 7.098 g of Na2HPO4 was weighed and ultrasonically dissolved in 500 mL of pure water to form Solution A. 3.400 g of KH2PO4 was weighed and ultrasonically dissolved in 250 mL of pure water to form Solution B. Solution A was placed in a stirrer and Solution B was slowly added until the pH value reached 7.4, thus formulating 100 mM PBS buffer solution.
(§3) The reaction system was formulated according to Table 3 below.
(§4) 3. The reaction system was placed in a water bath at 37° C. and pre-incubated for 10 minutes. 40 μL of 10 mM NADPH solution (NADPH was dissolved in 100 mM phosphate buffer solution) was added into the reaction system, and the final concentration of NADPH was 1 mM. 40 μL of Phosphate buffer solution was used instead of the NADPH solution as a negative control. The negative control was used to rule out the influence caused by the chemical stability of the compounds per se.
(§5) 4. The reaction system was added with 4 μL of 100 μM the compound of the present disclosure and Verapamil (the positive control compound) (DMSO as the vehicle), so that the reaction was initiated. The final concentration of the compound was 1 μM.
(§6) 5. At 0.5, 15, 30, 45 and 60 minutes, after being well mixed in a vortex oscillator, 50 μL of the incubated samples were taken out respectively, and the reaction was terminated with ice acetonitrile (4-fold) containing an internal standard. The samples were centrifuged at 3220 g for 45 minutes. After the centrifugation, 90 μL of the supernatants were transferred to a sample plate and mixed well with 90 μL of ultrapure water for LC-MS/MS analysis.
(§7) All data were calculated by Microsoft Excel software. Peak areas were determined from the extracted ion chromatograms. The in-vitro half-life (t1/2) of the parent drug was determined by the linear fitting of the natural logarithm of the elimination percentage of the parent drug versus time.
(§8) The in-vitro half-life (t1/2) was calculated from the slope: […]

[2] = Metabolic stability in liver microsomes (human); type: in vitro ADME; conditions: Human being liver microsomes 0.5 mg/mL, compound 1 μM, NADPH 1 mM, 37° C.; for half-life at 1 μM: pH 7.4
Description: as §1, §2, §3, §4, §5, §6, §7, §8

[3] = Pharmacokinetic experiment in mouse; type: in vivo; conditions: female CB17-SCID mice, oral dose 25 mg/kg; for half-life: mouse, plasma, read-out: Drug Elimination Half-life (converted)
Source text: CB17-SCID mice were purchased from Beijing Vital River Laboratory Animal Technology Co., Ltd.
DMSO, HP-β-CD (hydroxypropyl-β-cyclodextrin), PEG400 (polyethylene glycol 400), and Vitamin E TPGS (D-α-tocopherol polyethylene glycol 1000 succinate) were purchased from Sigma.
Six female CB17-SCID mice (20 g to 30 g, aged 4 to 6 weeks) were divided randomly into two groups, with 3 mice in each group. In Group 1, the compound in a vehicle of an aqueous solution containing 5% dimethyl sulfoxide and 95% hydroxypropyl-β-cyclodextrin (10%, w/v) was administered by intravenous injection via tail vein. In Group 2, a corresponding dose of the compound in a vehicle of an aqueous solution containing 30% polyethylene glycol 400 and 70% D-α-tocopherol polyethylene glycol 1000 succinate (10%, w/v) was orally administered. The animals were fed normally with food and water before experiment. The mice in each group underwent intravenous blood collection before administration and at 0.083 h (intravenous injection group only), 0.25 h, 0.5 h, 1 h, 2 h, 4 h, 6 h, 8 h, and 24 h after administration. The collected whole blood samples were placed in K2EDTA anticoagulation tubes and centrifuged for 5 min (4000 rpm, 4° C.) to collect the plasma for testing.
10 μL of the mouse plasma sample was taken, and 150 μL of acetonitrile solvent (containing the internal standard compound) was added to precipitate protein. After the resultant was vortexed for 0.5 min and centrifuged (4700 rpm, 4° C.) for 15 min, the supernatant was subjected to 2-fold dilution with water containing 0.05% (v/v) FA and was then subjected to quantitative measurement in LC-MS/MS system (AB Sciex Triple Quad 6500+). A calibration standard curve was prepared in CB17-SCID mouse plasma along with quality control samples to determine the plasma concentration. As for a 10× diluted sample, 2 μL of sample was taken and 18 μL of blank plasma was added. After being vortexed for 0.5 min, the mixture was added with 300 μL of acetonitrile solvent (containing the internal standard compound) so as to precipitate protein. The rest of the processing steps were the same as those for the undiluted samples.

Row | half-life at 1 μM [1] [h] | half-life at 1 μM [2] [h] | Drug Exposure [3] [ng·h/mL] | Max. Drug Conc. [3] [ng/mL] | Peak Time of Drug Conc. [3] [h] | half-life [3] [h] | t1/2 [1] [h] | Drug Elimination Half-life [3] [h] | t1/2 [2] [h] | Compound | pIC50 (WI-38 cells)
1 | > 8.33 | > 8.33 |  |  |  |  |  |  |  | Cc1cc(Nc2ccc(-c3cnc([C@H]4CC[C@H](NC(=O)OC(C)C)CC4)s3)c(P3(=O)CCC3)c2)n[nH]1 [Example 103, isopropyl trans-(4-(5-(4-((5-methyl-1H-pyrazol-3-yl)amino)-2-(1-oxophosphetan-1-yl)phenyl)thiazol-2-yl)cyclohexyl)carbamate] | < 4.60
2 | 2.82 | 3.12 | 156699 | 14798 | 1.3 | 5 |  |  |  | CC(C)OC(=O)Nc1ccc(-c2cnc([C@H]3CC[C@H](NC(=O)OC(C)C)CC3)s2)c(S(=N)(=O)C2CC2)c1 (stereo partly drawn) [Example 68, isopropyl trans-N-[3-(cyclopropylsulfonimidoyl)-4-[2-[4-(isopropoxycarbonylamino)cyclohexyl]thiazol-5-yl]phenyl]carbamate] | < 4.60
3 | > 8.33 | 2.28 |  |  |  |  |  |  |  | Cc1cc(Nc2ccc(-c3cnc([C@H]4CC[C@H](NC(=O)OC(C)C)CC4)s3)c(S(=N)(=O)C3CC3)c2)n(C)n1 (stereo partly drawn) [Example 98, isopropyl trans-(4-(5-(2-(cyclopropanesulfonimidoyl)-4-((1,3-dimethyl-1H-pyrazol-5-yl)amino)phenyl)thiazol-2-yl)cyclohexyl)carbamate] | < 4.60
4 | > 8.33 | > 8.33 | 47683 | 6698 | 1 | 3.1 |  |  |  | CC(C)OC(=O)N[C@H]1CC[C@H](c2ncc(-c3ccc(Nc4cn(C)nn4)cc3S(=N)(=O)C3CC3)s2)CC1 (stereo partly shown) [Example 54] | < 4.60
5 | 6.27 | 7.92 | 18187 | 4076 | 1 | 4.7 |  |  |  | Cc1cc(Nc2ccc(-c3cnc(C4CCC(NC(=O)OC(C)C)CC4)s3)c(S(=N)(=O)C3CC3)c2)n[nH]1 (stereo not drawn) [Example 50, isopropyl trans-N-[4-[5-[2-(cyclopropylsulfonimidoyl)-4-]((5-methyl-1H-pyrazol-3-yl)amino]phenyl]thiazol-2-yl]cyclohexyl]carbamate] | < 4.60
6 | 5.77 | 6.37 | 40080 | 8038 | 1 | 3.6 |  |  |  | Cc1cc(Nc2ccc(-c3cnc([C@H]4CC[C@H](NC(=O)OC(C)C)CC4)s3)c(S(=O)(=O)C3COC3)c2)n[nH]1 [Example 92, isopropyl trans-N-[4-[5-[4-[(5-methyl-1H-pyrazol-3-yl)amino]-2-(oxetan-3-ylsulfonyl)phenyl]thiazol-2-yl]cyclohexyl]carbamate] | 4.71
7 | 4.13 | > 8.33 |  |  |  |  |  |  |  | CC(C)OC(=O)Nc1ccc(-c2cnc([C@H]3CC[C@H](NC(=O)OC(C)C)CC3)s2)c(S(=O)(=O)C2CC2)c1 [Example 33, isopropyl trans-N-[3-cyclopropylsulfonyl-4-[2-[4-(isopropoxycarbonylamino)cyclohexyl]thiazol-5-yl]phenyl]carbamate] | < 4.60
8 | 2.08 | 0.933 |  |  |  |  |  |  |  | Cc1cc(Nc2ccc(-c3cnc([C@H]4CC[C@H](NC(=O)OC(C)C)CC4)s3)c(S(=O)(=O)C3CC3)c2)nn1C [Example 49, isopropyl trans-(4-(5-(2-(cyclopropylsulfonyl)-4-((1,5-dimethyl-1H-pyrazol-3-yl)amino)phenyl)thiazol-2-yl)cyclohexyl)carbamate] | < 4.60
9 | 7.28 | 5.05 |  |  |  |  |  |  |  | Cc1cc(Nc2ccc(-c3cnc([C@H]4CC[C@H](NC(=O)OC(C)C)CC4)s3)c(P3(=O)CCCC3)c2)n[nH]1 [Example 47, isopropyl trans-N-[4-[5-[4-[(5-methyl-1H-pyrazol-3-yl)amino]-2-(1-oxidophospholan-1-yl)phenyl]thiazol-2-yl]cyclohexyl]carbamate] | < 4.60
10 | 2.7 | 4.18 |  |  |  |  |  |  |  | CC(C)OC(=O)Nc1ccc(-c2cnc(C3CCC(NC(=O)OC(C)C)CC3)s2)c([S+]([O-])C(C)C)c1 (stereo not drawn) [Example 32, isopropyl trans-N-[4-[2-[4-(isopropoxycarbonylamino)cyclohexyl]thiazol-5-yl]-3-isopropylsulfinyl-phenyl]carbamate] | 4.64
11 |  |  | 125779 | 19257 | 1.3 |  | 3.4 | 3.5 | 3.85 | COc1ccc(-c2ccc(-c3cnc([C@H]4CC[C@H](NC(=O)OC(C)C)CC4)s3)c([S@@](=N)(=O)C3CC3)c2)cn1 (stereo in doubt) [Example 94] | 
12 | 2.1 | 0.933 |  |  |  |  |  |  |  | CC(C)OC(=O)N[C@H]1CC[C@H](c2ncc(-c3ccc(Nc4cc5ccccn5n4)cc3S(=O)(=O)C3CC3)s2)CC1 [Example 57, isopropyl trans-(4-(5-(2-(cyclopropylsulfonyl)-4-(pyrazolo[1,5-a]pyridin-2-ylamino)phenyl)thiazol-2-yl)cyclohexyl)carbamate] | < 4.60
13 | 1.82 | 2.98 |  |  |  |  |  |  |  | CC(C)OC(=O)N[C@H]1CC[C@H](c2ncc(-c3ccc(Nc4n[nH]c5ccccc45)cc3S(=O)(=O)C3CC3)s2)CC1 [Example 56, isopropyl trans-(4-(5-(4-((1H-indazol-3-yl)amino)-2-(cyclopropylsulfonyl)phenyl)thiazol-2-yl)cyclohexyl)carbamate] | < 4.60
14 | 1.33 | 1.85 |  |  |  |  |  |  |  | CC(C)OC(=O)N[C@H]1CC[C@H](c2ncc(-c3ccc(NC(=O)NCc4ccccc4)cc3S(=N)(=O)C3CC3)s2)CC1 (stereo partly drawn) [Example 65, isopropyl trans-(4-(5-(4-(3-benzylureido)-2-(cyclopropanesulfonimidoyl)phenyl)thiazol-2-yl)cyclohexyl)carbamate] | < 4.60
15 | 4.27 | 2.42 |  |  |  |  |  |  |  | CC(C)OC(=O)Nc1ccc(-c2cnc([C@H]3CC[C@H](NC(=O)OC(C)C)CC3)s2)c(S(=O)(=O)C(C)C)c1 [Example 2, isopropyl trans-N-[4-[2-[4-(isopropoxycarbonylamino)cyclohexyl]thiazol-5-yl]-3-isopropylsulfonyl-phenyl]carbamate] | < 4.60
